# From ChEMBL document CHEMBL6109069 (J Med Chem, 2025)
# Active and inactive are the calls of the source. No cut-off for these calls is given here. Starred links: 1 amine or outer side, 2 acyl side, 3 side chain; linkers in the order of their positions; H or OH if unused. Non-standard residues stand in square brackets, D forms with d. Residues, ends and D or L forms follow the SMILES beside them. *: point of attachment. X1 = CCC(=O)C[C@@H](O)C[C@@H](C)C[C@H](N[*:1])C(=O)[*:2]; Hexenoyl(2E,4S-Me) = CC[C@H](C)/C=C/C(=O)*; Leu(3R-OH) = CC(C)[C@@H](O)[C@H](N)C(=O)O; NH((S)CH(Me)CH2NMe2) = C[C@@H](CN(C)C)N*; Pro(4S-Me) = C[C@@H]1CN[C@H](C(=O)O)C1; NH(1-CH2NMe2-cBu) = CN(C)CC1(N*)CCC1; Benzoyl(4-F) = O=C(c1ccc(F)cc1)*; hCha = N[C@@H](CCC1CCCCC1)C(=O)O; Aib = CC(C)(N)C(=O)O; βAla = NCCC(=O)O
# Tests used:
# [1] = Reduction in respiration rate in human Fibroblast cells assessed as decrease in coupling efficiency at 50 nM incubated up to 80 mins; format: functional; design: scale not given: the % may be the effect or the level left; conditions: 1.333 h
# Fibroblast [2] = experiment: Induction of mitochondrial uncoupling activity in human Fibroblast cells assessed as increase in oxygen consumption rate by measuring fluorescence intensity at 25 nM measured up to 80 mins by O2k-type oxygraph analysis; format: functional, cell-based
# Trypanosoma cruzi = experiment: Antitrypanosomal activity against Trypanosoma cruzi Tulahuen C4 incubated for 4 days; format: functional, organism-based; conditions: Tulahuen C4, 96 h
# [3] = Inhibition of Bovine heart ATP synthase assessed as inhibition constant by Michaelis-Menten plot analysis; design: species or system Bos taurus; conditions: read-out: Ki
# Plasmodium falciparum = experiment: Antiplasmodial activity against Plasmodium falciparum NF54 incubated for 48 hrs; format: functional, organism-based; conditions: NF54, 48 h
# Lipid bilayer [4] = experiment: Disruption of membrane integrity in bacterial cell membrane mimic POPC/POPG LUVs assessed as HTPS leakage at 5 uM measured after 1 mins
# Lipid bilayer [5] = experiment: Disruption of membrane integrity in bacterial cell membrane mimic POPC/POPG LUVs assessed as calcein leakage at 1.3 uM measured for 1 mins by fluorescence spectroscopy analysis
# Mitochondrial membrane [6] = experiment: Induction of mitochondrial membrane potential in bovine heart assessed as change in fluorescence intensity at 200 nM by safranin O staining based eclipse fluorescence spectrophotometric analysis; format: cell membranes; conditions: Bos taurus
# Mitochondrial membrane [7] = experiment: Induction of mitochondrial membrane depolarization in bovine heart assessed as change in fluorescence intensity at 25 nM by safranin O staining based eclipse fluorescence spectrophotometric analysis; format: cell membranes; conditions: Bos taurus
# Trypanosoma brucei [8] = experiment: Induction of mitochondrial uncoupling activity in Trypanosoma brucei assessed as increase in oxygen consumption rate by measuring fluorescence intensity at 25 nM measured up to 80 mins by O2k-type oxygraph analysis; format: functional, organism-based
# [9] = system: Trypanosoma brucei rhodesiense; experiment: Antitrypanosomal activity against Trypanosoma brucei rhodesiense STIB 900; format: functional, organism-based
# [10] = Inhibition of Escherichia coli ATP synthase assessed as inhibition constant
# Leishmania donovani = experiment: Antitrypanosomal activity against Leishmania donovani MHOM/ET/67/L82 incubated for 72 hrs by resazurin staining based analysis; format: functional, organism-based; conditions: MHOM/ET/67/L82, 72 h
# Mitochondrial membrane [11] = experiment: Induction of mitochondrial membrane depolarization in bovine heart assessed as change in fluorescence intensity at 100 to 200 nM by safranin O staining based eclipse fluorescence spectrophotometric analysis; format: cell membranes; conditions: Bos taurus, dose 100-200 nM
# Lipid bilayer [12] = experiment: Disruption of membrane integrity in bacterial cell membrane mimic POPC/POPG LUVs assessed as HTPS leakage at 5 uM measured for 1 mins by fluorescence spectroscopy analysis
# Mitochondrial membrane [13] = experiment: Induction of mitochondrial membrane hyperpolarization in bovine heart assessed as change in fluorescence intensity at 25 nM by safranin O staining based eclipse fluorescence spectrophotometric analysis; format: cell membranes; conditions: Bos taurus
# Fibroblast [14] = experiment: Induction of mitochondrial uncoupling activity in human Fibroblast cells assessed as increase in oxygen consumption rate by measuring fluorescence intensity by O2k-type oxygraph analysis; format: functional, cell-based
# Fibroblast [15] = experiment: Inhibition of ATP synthase in human Fibroblast cells assessed as decrease in oxygen consumption at 50 nM by OROBOROS instrument based analysis; format: cell-based
# [16] = Cytotoxicity against rat L6 cells assessed as cell viability; format: toxicity, cell-based
# Trypanosoma brucei [17] = experiment: Induction of mitochondrial uncoupling activity in Trypanosoma brucei assessed as increase in oxygen consumption rate by measuring fluorescence intensity by O2k-type oxygraph analysis; format: functional, organism-based
# [18] = Inhibition of yeast ATP synthase assessed as inhibition constant by Michaelis-Menten plot analysis; design: species or system Saccharomyces cerevisiae
# [19] = Toxicity in po dosed mouse assessed as lethal dose; format: organism-based; conditions: in vivo
# [20] = Cytotoxicity against rat L6 cells; format: toxicity, cell-based
# Lipid bilayer [21] = experiment: Disruption of membrane integrity in bacterial cell membrane mimic POPC/POPG LUVs assessed as HTPS leakage at 1 uM measured for 1 mins by fluorescence spectroscopy analysis
# [22] = Toxicity in ip dosed mouse assessed as lethal dose; format: organism-based; conditions: in vivo
smiles,measurement,setting,value
CC(C)C[C@H](NC(=O)[C@H](CCC1CCCCC1)NC(=O)[C@@H]1CCCN1C(=O)c1ccc(F)cc1)C(=O)NC(C)(C)C(=O)N[C@@H](CC(C)C)C(=O)N[C@@H](CC(C)C)C(=O)NC(C)(C)C(=O)NC(C)(C)C(=O)NCCC(=O)NC1(CN(C)C)CCC1 ({Benzoyl(4-F)}-P[hCha]L[Aib]LL[Aib][Aib][βAla]-{NH(1-CH2NMe2-cBu)}),Activity,[1],~3%
same,Activity,Fibroblast [2],inactive
same,IC50,Trypanosoma cruzi,114 nM
same,Ki,[3],265 nM
same,IC50,Plasmodium falciparum,5.4 nM
same,Activity,Lipid bilayer [4],Active
same,Activity,Lipid bilayer [5],Active
same,Activity,Mitochondrial membrane [6],Active
same,Activity,Mitochondrial membrane [7],Active
same,Activity,Trypanosoma brucei [8],inactive
same,IC50,[9],0.39 nM
same,Ki,[10],~260 nM
same,IC50,Leishmania donovani,4.9 nM
same,Activity,Mitochondrial membrane [11],Active
"CCC(=O)C[C@@H](O)C[C@@H](C)C[C@H](NC(=O)[C@@H]1C[C@H](C)CN1C(=O)/C=C/[C@@H](C)CC)C(=O)N[C@H](C(=O)NC(C)(C)C(=O)N[C@@H](CC(C)C)C(=O)N[C@@H](CC(C)C)C(=O)NC(C)(C)C(=O)NC(C)(C)C(=O)NCCC(=O)N[C@@H](C)CN(C)C)[C@H](O)C(C)C ({Hexenoyl(2E,4S-Me)}-[Pro(4S-Me)][X1][Leu(3R-OH)][Aib]LL[Aib][Aib][βAla]-{NH((S)CH(Me)CH2NMe2)})",Activity,[1],~60%
same,Activity,Lipid bilayer [12],inactive
same,IC50,Trypanosoma cruzi,23 nM
same,Ki,[3],80 nM
same,IC50,Plasmodium falciparum,0.61 nM
same,Activity,Mitochondrial membrane [13],Active
same,Activity,Fibroblast [14],Active
same,Activity,Lipid bilayer [5],Active
same,inhibition,Fibroblast [15],Active
same,IC50,[16],259 nM
same,Activity,Trypanosoma brucei [17],Active
same,IC50,[9],0.25 nM
same,Ki,[18],~30 nM
same,LD50,[19],5.4 mg/kg
same,Ki,[10],> 1000 nM
same,IC50,Leishmania donovani,1.1 nM
same,IC50,[20],259 nM
same,Activity,Lipid bilayer [21],inactive
same,LD50,[22],1.8 mg/kg
